# From patent publication US12630529B2, “GCN2 modulator compounds” (ALESTA THERAPEUTICS BV, priority 2020, dated 2026)
# Experiments:
# GCN2 [1] = target: T1, GCN2 (Homo sapiens, UniProt Q9P2K8); assay: GCN2 enzyme inhibition assay (Reaction Biology EIF2AK4/GCN2 kinase assay); assay type: biochemical; parameters: purchased Reaction Biology Corp; details: human GCN2 enzyme activity, 10 μM ATP, 20 μM peptide substrate
# Description: In order to validate the above results, human GCN2 enzyme activity was measured in Reaction Biology Corp (EIF2AK4/GCN2 kinase assay). Compounds were tested in 5-dose IC50 mode for non-active compounds and 10-dose IC50 mode for active compounds with 3-fold serial dilution starting at 30 μM and 0.1 μM respectively. Control compound Staurosporine was tested in 10-dose IC50 mode with 4-fold serial dilution starting at 20 μM. Reactions were carried out at 10 μM ATP using 20 μM peptide substrate [GRSRSRSRSR]. For IC50 values: +++ refers to <10 nM of test compound; ++ refers to 10 nM to 100 nM of test compound; + refers to 100 nM to 1,000 nM of test compound and − refers to >1,000 nM of test compound.
# HT29 cells [2] = assay: Growth of tumor spheroids; assay type: cell-based; details: 64 μM arginine, up to 120 hours, vs untreated spheroids
# Description: The growth of tumor spheroids was evaluated following treatment of cells with Compound 1, Compound 2 and Compound 108. Briefly, HT29 cells were seeded at 5,000 cells/well in ultra-low attachment round bottom 96-well plates, in 100 μL SILAC DMEM Flex media without phenol red, supplemented with 10% fetal bovine serum (FBS), 1 g/L glucose, 2 mM glutamine, 220 μM lysine, and 64 μM arginine. The plates were centrifuged for 10 minutes at 125×g and put in a humidified incubator at 37° C. for 3 days before the onset of the experiment to allow spheroids to form.
# Three days after seeding, 10 μM Compound 1, 10 μM Compound 2, 10 μM Compound 108 or 10 μM vehicle control (0.1% DMSO), were added together with 100 nM fluorescent apoptosis stain (e.g., YO-PRO™-1 Iodide; Thermo Fisher) to detect apoptotic cells and Nuclear-ID Red DNA Stain (1:100,000; ENZO Life Sciences) to detect live cells. Plates were placed in a live-cell imaging and analysis platform (e.g., IncuCyte ZOOM®; Essenbio) set up in a humidified incubator at 37° C. and scanned every 4 hours for up 120 hours, at 10× magnification, to determine relative spheroid size and cell death. Experiments were performed in quadruplicate and analyzed using live-cell imaging and analysis software (e.g., IncuCyte ZOOM® 2018A software; Essenbio).
# GCN2 [3] = target: T1, GCN2; assay: GCN2 activation induced by arginine starvation (Western blot); assay type: cell-based; parameters: endogenous in cells; host or cells: HT29 and HCT116; details: HT29 and HCT116 colorectal cancer cell lines, 24 hours
# Description: Colorectal cancer cell lines HT29 and HCT116 were seeded at a concentration of 100×10^3 cells per well in 6 well plates, in SILAC DMEM Flex media supplemented with 10% fetal bovine serum, 1 g/L glucose, 2 mM glutamine, 800 μM lysine, and various concentrations of arginine in the absence or presence of Compound 1 and Compound 2 GCN2 inhibitors. Cells were cultured for 24 hours.
# Following 24 hours of culture, expression of phosphorylated GCN2 (P-GCN2) and alpha-actinin loading control was assessed by Western blot. Briefly, cells were washed with cold PBS and dissolved in cell lysis buffer containing 1% Triton, supplemented with protease inhibitors and phosphatase inhibitors. All lysates were freshly prepared and normalized using a BCA protein assay before addition of LDS sample buffer and denaturation by boiling the samples for 5 minutes at 95° C. Proteins were separated on 4-12% Bis-Tris protein gels in MOPS SDS buffer and electrophoresis was performed (e.g., Novex NuPAGE® Gel Electrophoresis Systems; Invitrogen). Transfer of the protein samples was performed (e.g., using the Mini Trans-Blot Cell® system; Bio-Rad) with 0.45 μM pore Nitrocellulose/Filter paper sandwiches and transfer buffer at 350 mA for 90 minutes at 4° C. Membranes were blocked for 1 hour with 4% BSA in TBS-Tween at room temperature and incubated with 1:1,000 dilutions of anti-GCN2, phospho-GCN2, α-actinin1, and/or p21 (Waf/Cip1) antibodies overnight at 4° C. Afterwards, membranes were washed 3 times with TBS-Tween and incubated with HRP-conjugated secondary antibodies at 1:20,000 dilution for 1 hour at room temperature.
# HT29 cells [4] = assay: Proliferation and apoptosis of colorectal cancer cells (live-cell imaging); assay type: cell-based; details: 10 μM, 64 μM arginine, up to 96 hours, vs untreated cells; for rate of apoptotic cell death: YO-PRO-1 uptake
# Description: Proliferation and apoptosis of HT29 cells was determined in the presence of Compound 1 and Compound 2. Briefly, cells were seeded in 96-well flat bottom plates at 4,000 cells per well in 100 μL SILAC DMEM Flex media without phenol red, supplemented with 10% fetal bovine serum (FBS), 1 g/L glucose, 2 mM glutamine, 220 μM lysine, containing a physiological concentration of arginine (64 μM). After 24 hours, cells were treated with 10 μM vehicle control (Control; 0.1% DMSO), 10 μM Compound 1, or 10 μM Compound 2, together with 100 nM of fluorescent apoptosis stain (YO-PRO™-1 Iodide; Thermo Fisher) to detect apoptotic cells. Cells were placed in a live-cell imaging and analysis platform (IncuCyte ZOOM®; Essenbio) set up in a humidified incubator at 37° C. and the plates were scanned every 4 hours for up 96 hours, at 10× magnification to determine cell confluence and cell death. Experiments were performed in duplicate with 3 images collected per well and analyzed using live-cell imaging and analysis software (e.g., IncuCyte ZOOM® 2018A software; Essenbio).
# CHOP (DDIT3) reporter = assay: GCN2-induction of CHOP and apoptosis in 3T3 fibroblasts with CHOP (DDIT3) reporter construct; assay type: cell-based, murine; details: for GCN2 activation / GCN2-induced CHOP activation: murine 3T3 CHOP (mCherry) reporter fibroblasts, increasing concentrations, in the presence of halofuginone or histidinol; for apoptosis induced by halofuginone / late-stage apoptosis induced by histidinol: murine 3T3 WT cells; for apoptosis induced by halofuginone: co-treatment with halofuginone; for late-stage apoptosis induced by histidinol: co-treatment with histidinol
# Description: The CHOP construct comprised the […] (UTR) of mouse DDIT3 mRNA fused to a sequence encoding the fluorescent protein mCherry.
# Cells were seeded at 5,000 cells per well in flat bottom 96-well plates in 100 μL DMEM low glucose media without phenol red, and supplemented with 10% FBS and 2 mM glutamine. After 24 hours, the exemplary compounds, and either tunicamycin, halofuginone, or histidinol, were added together with 100 nM of fluorescent apoptosis stain (YO-PRO™-1 Iodide; Thermo Fisher) to detect apoptotic cells. Cells were placed in a live-cell imaging and analysis platform (IncuCyte ZOOM®; Essenbio) set up in a humidified incubator at 37° C. and the plates were scanned every 4 hours for up 120 hours, at 10× magnification, to determine cell confluence and cell death. Experiments were performed in duplicate with 3 images collected per well, and analyzed using live-cell imaging and analysis software (IncuCyte ZOOM® 2018A software; Essenbio).
# T1 sequence (Q9P2K8 whole entry): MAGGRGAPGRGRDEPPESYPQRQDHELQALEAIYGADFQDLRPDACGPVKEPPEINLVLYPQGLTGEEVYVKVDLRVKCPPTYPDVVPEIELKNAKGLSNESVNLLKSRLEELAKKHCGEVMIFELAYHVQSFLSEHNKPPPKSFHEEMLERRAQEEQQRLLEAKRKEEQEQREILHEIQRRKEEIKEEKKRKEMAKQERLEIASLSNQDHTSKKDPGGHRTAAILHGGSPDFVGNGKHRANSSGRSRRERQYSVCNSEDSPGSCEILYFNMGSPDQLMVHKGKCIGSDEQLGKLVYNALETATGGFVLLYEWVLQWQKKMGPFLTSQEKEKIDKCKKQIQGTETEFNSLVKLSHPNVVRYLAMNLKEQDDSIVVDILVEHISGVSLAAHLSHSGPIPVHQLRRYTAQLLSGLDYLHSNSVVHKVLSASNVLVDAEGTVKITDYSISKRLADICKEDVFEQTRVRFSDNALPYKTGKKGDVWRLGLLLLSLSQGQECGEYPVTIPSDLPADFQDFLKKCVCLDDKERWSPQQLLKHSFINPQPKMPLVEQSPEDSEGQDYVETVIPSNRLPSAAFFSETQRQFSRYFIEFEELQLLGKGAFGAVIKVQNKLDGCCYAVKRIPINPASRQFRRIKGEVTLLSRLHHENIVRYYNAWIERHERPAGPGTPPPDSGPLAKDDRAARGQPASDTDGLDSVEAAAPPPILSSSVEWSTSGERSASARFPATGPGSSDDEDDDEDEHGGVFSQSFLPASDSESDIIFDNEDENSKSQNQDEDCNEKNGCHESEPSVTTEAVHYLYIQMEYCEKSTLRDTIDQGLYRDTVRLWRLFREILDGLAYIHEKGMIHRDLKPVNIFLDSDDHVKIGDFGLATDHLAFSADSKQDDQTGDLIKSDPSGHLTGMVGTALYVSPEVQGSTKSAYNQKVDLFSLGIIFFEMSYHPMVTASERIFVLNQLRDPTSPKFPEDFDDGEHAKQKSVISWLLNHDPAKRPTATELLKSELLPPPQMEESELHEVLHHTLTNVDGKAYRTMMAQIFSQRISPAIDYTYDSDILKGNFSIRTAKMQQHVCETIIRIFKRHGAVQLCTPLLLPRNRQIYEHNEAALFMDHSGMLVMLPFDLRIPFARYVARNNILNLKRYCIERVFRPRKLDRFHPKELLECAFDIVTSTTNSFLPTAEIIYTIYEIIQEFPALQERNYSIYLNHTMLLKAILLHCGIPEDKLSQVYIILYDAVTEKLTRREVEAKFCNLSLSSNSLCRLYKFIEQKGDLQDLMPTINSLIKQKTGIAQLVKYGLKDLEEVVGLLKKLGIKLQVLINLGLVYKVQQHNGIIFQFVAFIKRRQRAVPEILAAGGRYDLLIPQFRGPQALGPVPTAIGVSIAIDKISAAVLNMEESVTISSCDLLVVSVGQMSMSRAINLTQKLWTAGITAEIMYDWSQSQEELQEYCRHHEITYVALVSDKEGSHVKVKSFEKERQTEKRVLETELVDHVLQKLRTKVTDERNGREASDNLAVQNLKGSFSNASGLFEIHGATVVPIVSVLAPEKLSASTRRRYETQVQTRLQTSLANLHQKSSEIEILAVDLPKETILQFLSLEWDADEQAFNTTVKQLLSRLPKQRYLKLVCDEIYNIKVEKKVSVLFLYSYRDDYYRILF
IC50 (GCN2 [1]) [nM],p21 expression (GCN2 [3]),SMILES,spheroid size and viability (HT29 cells [2]),activation of GCN2 (P-GCN2 expression) upon arginine depletion (GCN2 [3]),rate of apoptotic cell death (HT29 cells [4]),cell density / confluence (HT29 cells [4]),GCN2 activation / GCN2-induced CHOP activation (CHOP (DDIT3) reporter),apoptosis induced by halofuginone (CHOP (DDIT3) reporter),late-stage apoptosis induced by histidinol (CHOP (DDIT3) reporter)
< 10,p21 expression is induced,Nc1ncc2cc(-c3c(F)ccc(NS(=O)(=O)c4cc(Cl)ccc4Cl)c3F)ccc2n1 [Compound 2],relative reduction in spheroid size and viability in a dose-dependent manner,prevented the activation of GCN2 upon arginine depletion,increased rate of apoptotic cell death,grew less dense,reduced GCN2 activation,effectively inhibited apoptosis,increased late-stage apoptosis
10 to 100,p21 expression is induced,COc1ncc(Cl)cc1S(=O)(=O)Nc1ccc(F)c(-c2ccc3nc(N)ncc3c2)c1F [Compound 1],relative reduction in spheroid size and viability in a dose-dependent manner,prevented the activation of GCN2 upon arginine depletion,increased rate of apoptotic cell death,grew less dense,reduced GCN2 activation,effectively inhibited apoptosis,increased late-stage apoptosis
